Measurements taken from ChEMBL document CHEMBL1201862, “PubChem BioAssay data set” (2004).
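Five concentrations, 48 hours, 96-well plates. Abbreviation: GI50, concentration required for 50% inhibition of growth.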 Active and inactive are the calls of the source. Cut-off read from the data, not from the text of the source: active = GI50 up to about 1.1 µM and inactive = higher.

Columns and labels:
Assay in all cases: growth of human tumour cells (NCI), 48 h
NCI-H460 = tested on: NCI-H460
HL-60 = tested on: HL-60
M14 = tested on: M14
LOX IMVI = tested on: LOX IMVI
UACC-62 = tested on: UACC-62
COLO 205 = tested on: COLO 205
HCC 2998 = tested on: HCC 2998
SR = tested on: SR
NCI-H226 = tested on: NCI-H226
SNB-75 = tested on: SNB-75
MDA-MB-435 = tested on: MDA-MB-435
HCT-116 = tested on: HCT-116
A549 = tested on: A549
NCI-H522 = tested on: NCI-H522
K562 = tested on: K562
HT-29 = tested on: HT-29
NCI-H23 = tested on: NCI-H23
SK-MEL-2 = tested on: SK-MEL-2
MDA-MB-231 = tested on: MDA-MB-231
UACC-257 = tested on: UACC-257
ACHN = tested on: ACHN
SK-MEL-28 = tested on: SK-MEL-28
SK-MEL-5 = tested on: SK-MEL-5
OVCAR-4 = tested on: OVCAR-4
CAKI-1 = tested on: CAKI-1
RPMI-8226 = tested on: RPMI-8226
HOP-92 = tested on: HOP-92
OVCAR-3 = tested on: OVCAR-3
SF-268 = tested on: SF-268
RXF 393 = tested on: RXF 393
OVCAR-5 = tested on: OVCAR-5
SN12C = tested on: SN12C
EKVX = tested on: EKVX
SF-539 = tested on: SF-539
NCI/ADR-RES = tested on: NCI/ADR-RES
MOLT-4 = tested on: MOLT-4
HOP-62 = tested on: HOP-62
UO-31 = tested on: UO-31
Malme-3M = tested on: Malme-3M
DU-145 = tested on: DU-145
CCRF-CEM = tested on: CCRF-CEM
SW-620 = tested on: SW-620
MDA-N = tested on: MDA-N
HCT-15 = tested on: HCT-15
A498 = tested on: A498
IGROV-1 = tested on: IGROV-1
Hs-578T = tested on: Hs-578T
OVCAR-8 = tested on: OVCAR-8
TK-10 = tested on: TK-10
SNB-19 = tested on: SNB-19
KM12 = tested on: KM12
786-0 = tested on: 786-0
U-251 = tested on: U-251
SF-295 = tested on: SF-295
PC-3 = tested on: PC-3
MCF7 = tested on: MCF7
SK-OV-3 = tested on: SK-OV-3

SMILES: CC(=O)OCC1OC(n2c(-c3ccc(C)cc3)cc(-c3ccco3)c(C#N)c2=O)C(OC(C)=O)C(OC(C)=O)C1OC(C)=O (stereo unspecified)
- GI50 (NCI-H460): 2.59 µM (inactive)
- GI50 (HL-60): 2.72 µM (inactive)

SMILES: O=c1[nH]n(Cc2ccccc2Cl)c2ccc([N+](=O)[O-])cc12
- GI50 (M14): > 100 µM (inactive)
- GI50 (LOX IMVI): > 100 µM (inactive)
- GI50 (UACC-62): 43.4 µM (inactive)
- GI50 (COLO 205): > 100 µM (inactive)
- GI50 (HCC 2998): 50.1 µM (inactive)
- GI50 (SR): 29.2 µM (inactive)
- GI50 (NCI-H226): 86.9 µM (inactive)
- GI50 (SNB-75): 47.2 µM (inactive)
- GI50 (MDA-MB-435): 3.98 µM (inactive)
- GI50 (HCT-116): 41.1 µM (inactive)
- GI50 (A549): 37.8 µM (inactive)
- GI50 (NCI-H522): 36.1 µM (inactive)
- GI50 (K562): 29 µM (inactive)
- GI50 (HT-29): 72.9 µM (inactive)
- GI50 (NCI-H23): 49.8 µM (inactive)
- GI50 (SK-MEL-2): 34.7 µM (inactive)
- GI50 (MDA-MB-231): 39.4 µM (inactive)
- GI50 (UACC-257): > 100 µM (inactive)
- GI50 (ACHN): 33.3 µM (inactive)
- GI50 (SK-MEL-28): 55.8 µM (inactive)
- GI50 (SK-MEL-5): 12.6 µM (inactive)
- GI50 (OVCAR-4): 78.9 µM (inactive)
- GI50 (CAKI-1): > 100 µM (inactive)
- GI50 (RPMI-8226): 45.1 µM (inactive)
- GI50 (HOP-92): 18.5 µM (inactive)
- GI50 (OVCAR-3): 35.9 µM (inactive)
- GI50 (SF-268): 49.9 µM (inactive)
- GI50 (RXF 393): 23.3 µM (inactive)
- GI50 (OVCAR-5): > 100 µM (inactive)
- GI50 (SN12C): 54 µM (inactive)
- GI50 (EKVX): 58.7 µM (inactive)
- GI50 (SF-539): 54.2 µM (inactive)
- GI50 (NCI/ADR-RES): 28.1 µM (inactive)
- GI50 (MOLT-4): 35.8 µM (inactive)
- GI50 (HOP-62): 75.9 µM (inactive)
- GI50 (UO-31): 34.3 µM (inactive)
- GI50 (Malme-3M): 47.3 µM (inactive)
- GI50 (DU-145): > 100 µM (inactive)
- GI50 (CCRF-CEM): 45.2 µM (inactive)
- GI50 (SW-620): 53.7 µM (inactive)
- GI50 (NCI-H460): 35.6 µM (inactive)
- GI50 (MDA-N): 47 µM (inactive)
- GI50 (HCT-15): 58.6 µM
- GI50 (A498): 22.3 µM (inactive)
- GI50 (IGROV-1): 61.9 µM (inactive)
- GI50 (Hs-578T): 48.9 µM (inactive)
- GI50 (OVCAR-8): 42.3 µM (inactive)
- GI50 (TK-10): 55.6 µM (inactive)
- GI50 (SNB-19): 80 µM (inactive)
- GI50 (KM12): 63.5 µM (inactive)
- GI50 (HL-60): 31.6 µM (inactive)
- GI50 (786-0): 46.6 µM (inactive)
- GI50 (U-251): 75.9 µM (inactive)

SMILES: Cc1ccc(NC(=O)c2cc3ccccc3c(/N=N\c3ccccc3O)c2O)c(C)c1
- GI50 (M14): 0.839 µM (active)
- GI50 (COLO 205): 3.02 µM (inactive)
- GI50 (HCC 2998): 5.06 µM (inactive)
- GI50 (SR): 0.373 µM (active)
- GI50 (NCI-H226): 2.82 µM (inactive)
- GI50 (SNB-75): 0.053 µM (active)
- GI50 (HCT-116): 0.664 µM (active)
- GI50 (SF-295): 0.863 µM (active)
- GI50 (A549): 2.25 µM (inactive)
- GI50 (NCI-H522): 1.01 µM (active)
- GI50 (K562): 3.09 µM (inactive)
- GI50 (HT-29): 3.13 µM (inactive)
- GI50 (SK-MEL-2): 2.98 µM (inactive)
- GI50 (MDA-MB-231): 2 µM (inactive)
- GI50 (UACC-257): 4.75 µM (inactive)
- GI50 (ACHN): 1.88 µM (inactive)
- GI50 (SK-MEL-28): 5.09 µM (inactive)
- GI50 (SK-MEL-5): 1.03 µM (active)
- GI50 (PC-3): 1.63 µM (inactive)
- GI50 (OVCAR-4): 1.63 µM (inactive)
- GI50 (MCF7): 2.16 µM (inactive)
- GI50 (CAKI-1): 1.19 µM (inactive)
- GI50 (RPMI-8226): 1.78 µM (inactive)
- GI50 (HOP-92): 2.95 µM (inactive)
- GI50 (OVCAR-3): 0.37 µM (active)
- GI50 (SF-268): 0.687 µM (active)
- GI50 (RXF 393): 3.67 µM (inactive)
- GI50 (OVCAR-5): 3.1 µM (inactive)
- GI50 (EKVX): 2.75 µM (inactive)
- GI50 (NCI/ADR-RES): 1.54 µM (inactive)
- GI50 (MOLT-4): 1.25 µM (inactive)
- GI50 (HOP-62): 1.03 µM (active)
- GI50 (Malme-3M): 0.809 µM (active)
- GI50 (CCRF-CEM): 0.818 µM (active)
- GI50 (SW-620): 1.69 µM (inactive)
- GI50 (SK-OV-3): 1.86 µM (inactive)
- GI50 (NCI-H460): 0.44 µM (active)
- GI50 (HCT-15): 0.614 µM
- GI50 (IGROV-1): 1.14 µM (inactive)
- GI50 (Hs-578T): 1.64 µM (inactive)
- GI50 (OVCAR-8): 0.859 µM (active)
- GI50 (TK-10): 5.31 µM (inactive)
- GI50 (SNB-19): 1.2 µM (inactive)
- GI50 (KM12): 1.45 µM (inactive)
- GI50 (HL-60): 1.14 µM (inactive)
- GI50 (786-0): 1.32 µM (inactive)
